Measurements reported in ChEMBL document CHEMBL5058642, “Data for DCP probe TP-051” (2022).

Experiments:
[1] = molecular target: T1, GABA-A receptor; anion channel (Rattus norvegicus) (UniProt O09028+P15431+P18506+P18508+P19969+P20236+P23574+P23576+P28471+P28473+P30191+P62813+P63079+P63138+Q91ZM7+Q9ES14); settings: Compound concentration 10.0 uM
[2] = molecular target: Type-1 angiotensin II receptor (Homo sapiens) (UniProt P30556); test: Angiotensin AT1 Eurofins-Panlabs radioligand binding assay; settings: Compound concentration 10.0 uM
Homo sapiens = species on record: Homo sapiens; test: Chemokine CXCR1/2 (IL-8, Non-selective) Eurofins-Panlabs radioligand binding assay; settings: Compound concentration 10.0 uM
[3] = molecular target: T1, GABA-A receptor; anion channel (Rattus norvegicus); test: Inhibition of GABAA, Muscimol, Central at 10 µM in the Eurofins-Panlabs radioligand binding assay (Eurofins_assay_226500); type: protein-complex assay; settings: Compound concentration 10.0 uM
[4] = molecular target: Glutamate receptor ionotropic, kainate (Rattus norvegicus) (UniProt P22756+Q01812+P42260+P42264+Q63273); test: Inhibition of Glutamate, Kainate at 10 µM in the Eurofins-Panlabs radioligand binding assay (Eurofins_assay_232700); settings: Compound concentration 10.0 uM
[5] = molecular target: Estrogen receptor (Homo sapiens) (UniProt P03372); settings: Compound concentration 10.0 uM
[6] = molecular target: T2, Muscarinic acetylcholine receptor M1 (Homo sapiens) (UniProt P11229); settings: Compound concentration 10.0 uM
T2 sequence (whole entry): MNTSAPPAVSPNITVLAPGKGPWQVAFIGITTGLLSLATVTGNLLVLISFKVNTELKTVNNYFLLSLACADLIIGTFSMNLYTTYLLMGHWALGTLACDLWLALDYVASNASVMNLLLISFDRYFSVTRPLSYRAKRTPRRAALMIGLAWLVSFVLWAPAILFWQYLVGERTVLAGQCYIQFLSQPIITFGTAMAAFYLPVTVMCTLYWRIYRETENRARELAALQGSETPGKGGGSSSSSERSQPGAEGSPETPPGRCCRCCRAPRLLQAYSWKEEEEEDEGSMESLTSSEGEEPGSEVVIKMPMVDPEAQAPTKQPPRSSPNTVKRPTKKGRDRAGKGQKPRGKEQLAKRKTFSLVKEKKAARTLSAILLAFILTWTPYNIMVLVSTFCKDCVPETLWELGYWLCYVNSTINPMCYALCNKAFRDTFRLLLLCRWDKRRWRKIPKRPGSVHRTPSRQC

[7] = molecular target: T3, D(4) dopamine receptor (Homo sapiens) (UniProt P21917); settings: Compound concentration 10.0 uM
T3 sequence (whole entry): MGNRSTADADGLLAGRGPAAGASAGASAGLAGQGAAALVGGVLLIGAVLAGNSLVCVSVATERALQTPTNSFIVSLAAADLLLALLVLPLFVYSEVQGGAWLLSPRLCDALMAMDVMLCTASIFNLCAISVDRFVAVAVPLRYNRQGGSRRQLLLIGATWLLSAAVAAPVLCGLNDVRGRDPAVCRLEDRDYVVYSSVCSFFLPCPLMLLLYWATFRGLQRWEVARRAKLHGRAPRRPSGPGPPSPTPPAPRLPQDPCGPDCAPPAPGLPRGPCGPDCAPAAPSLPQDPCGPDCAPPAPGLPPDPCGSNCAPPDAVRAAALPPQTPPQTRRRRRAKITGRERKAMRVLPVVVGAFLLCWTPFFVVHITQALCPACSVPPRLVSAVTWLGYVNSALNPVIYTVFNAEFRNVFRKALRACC

Rattus norvegicus = species on record: Rattus norvegicus; test: Serotonin (5-Hydroxytryptamine) 5-HT1, Non-Selective Eurofins-Panlabs radioligand binding assay; type: protein assay; settings: Compound concentration 10.0 uM
[8] = molecular target: 5-hydroxytryptamine receptor 1E (Homo sapiens) (UniProt P28566); settings: Compound concentration 10.0 uM
[9] = molecular target: T2, Muscarinic acetylcholine receptor M1 (Homo sapiens); test: Muscarinic M1 Eurofins-Panlabs radioligand binding assay; settings: Compound concentration 10.0 uM
[10] = molecular target: Insulin receptor (Homo sapiens) (UniProt P06213); settings: Rattus norvegicus; Compound concentration 10.0 uM
[11] = molecular target: Histamine H1 receptor (Homo sapiens) (UniProt P35367); settings: Compound concentration 10.0 uM
[12] = molecular target: 5-hydroxytryptamine receptor 2B (Homo sapiens) (UniProt P41595); settings: Compound concentration 10.0 uM
[13] = molecular target: Mu-type opioid receptor (Homo sapiens) (UniProt P35372); settings: Compound concentration 10.0 uM
[14] = molecular target: D(1A) dopamine receptor (Homo sapiens) (UniProt P21728); settings: Compound concentration 10.0 uM
[15] = molecular target: Sodium-dependent dopamine transporter (Homo sapiens, UniProt Q01959); settings: Compound concentration 10.0 uM
[16] = molecular target: Histamine H2 receptor (Homo sapiens) (UniProt P25021); settings: Compound concentration 10.0 uM
[17] = molecular target: 5-hydroxytryptamine receptor 1D (Homo sapiens) (UniProt P28221); settings: Compound concentration 10.0 uM
[18] = molecular target: B2 bradykinin receptor (Homo sapiens) (UniProt P30411); test: Bradykinin B2 Eurofins-Panlabs radioligand binding assay; settings: Compound concentration 10.0 uM
[19] = molecular target: Alpha-2A adrenergic receptor (Homo sapiens) (UniProt P08913); settings: Compound concentration 10.0 uM
[20] = molecular target: Beta-1 adrenergic receptor (Homo sapiens) (UniProt P08588); settings: Compound concentration 10.0 uM
[21] = molecular target: B1 bradykinin receptor (Homo sapiens) (UniProt P46663); test: Inhibition of Bradykinin B1 at 10 µM in the Eurofins-Panlabs radioligand binding assay (Eurofins_assay_212510); settings: Compound concentration 10.0 uM
[22] = molecular target: Gamma-aminobutyric acid type B receptor subunit 1 (Homo sapiens) (UniProt Q9UBS5); test: GABAB1B Eurofins-Panlabs radioligand binding assay; settings: Compound concentration 10.0 uM
[23] = molecular target: D(1A) dopamine receptor (Homo sapiens) (UniProt P21728); settings: Compound concentration 10.0 uM; remark: listed apart in the source
[24] = molecular target: Gamma-aminobutyric acid type B receptor subunit 1 (Homo sapiens) (UniProt Q9UBS5); test: GABAB1A Eurofins-Panlabs radioligand binding assay; settings: Compound concentration 10.0 uM
[25] = molecular target: Sigma non-opioid intracellular receptor 1 (Homo sapiens) (UniProt Q99720); settings: Compound concentration 10.0 uM
[26] = molecular target: Histamine H2 receptor (Homo sapiens) (UniProt P25021); settings: Compound concentration 10.0 uM; remark: listed apart in the source
[27] = molecular target: Alpha-2C adrenergic receptor (Homo sapiens) (UniProt P18825); settings: Compound concentration 10.0 uM
[28] = molecular target: ATP-sensitive inward rectifier potassium channel 11 (Cricetulus griseus) (UniProt A0A3L7HHE1); test: Inhibition of Potassium Channel [KATP] at 10 µM in the Eurofins-Panlabs radioligand binding assay (Eurofins_assay_265600); settings: Cricetinae; Compound concentration 10.0 uM

Gamma-aminobutyric acid type B receptor subunit 1 (Homo sapiens), sequence (Q9UBS5 whole entry): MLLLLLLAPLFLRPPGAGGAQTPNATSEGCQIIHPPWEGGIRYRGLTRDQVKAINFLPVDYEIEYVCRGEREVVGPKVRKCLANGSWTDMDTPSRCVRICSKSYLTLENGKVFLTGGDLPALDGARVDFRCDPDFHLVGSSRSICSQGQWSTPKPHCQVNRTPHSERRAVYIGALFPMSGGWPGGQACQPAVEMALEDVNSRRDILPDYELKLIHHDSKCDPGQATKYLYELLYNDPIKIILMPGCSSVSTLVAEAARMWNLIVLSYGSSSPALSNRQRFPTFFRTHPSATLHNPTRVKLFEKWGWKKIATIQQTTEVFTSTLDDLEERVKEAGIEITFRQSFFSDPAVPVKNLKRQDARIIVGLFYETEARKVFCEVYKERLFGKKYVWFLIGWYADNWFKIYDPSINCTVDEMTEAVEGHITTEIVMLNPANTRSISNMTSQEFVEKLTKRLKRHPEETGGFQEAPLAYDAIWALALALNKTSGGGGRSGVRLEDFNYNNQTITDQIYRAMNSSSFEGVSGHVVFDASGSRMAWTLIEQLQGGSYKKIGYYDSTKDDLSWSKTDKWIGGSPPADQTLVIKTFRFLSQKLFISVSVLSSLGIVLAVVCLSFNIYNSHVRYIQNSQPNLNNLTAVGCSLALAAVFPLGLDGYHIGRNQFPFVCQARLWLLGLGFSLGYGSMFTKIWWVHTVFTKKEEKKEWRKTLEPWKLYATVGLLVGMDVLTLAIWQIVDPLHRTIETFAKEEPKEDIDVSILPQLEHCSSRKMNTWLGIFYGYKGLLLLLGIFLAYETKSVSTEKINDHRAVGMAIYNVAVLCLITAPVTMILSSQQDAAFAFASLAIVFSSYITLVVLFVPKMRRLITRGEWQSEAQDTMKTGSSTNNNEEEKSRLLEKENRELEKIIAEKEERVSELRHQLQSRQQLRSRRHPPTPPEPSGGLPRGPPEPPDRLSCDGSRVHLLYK
Histamine H2 receptor (Homo sapiens), sequence (P25021 whole entry): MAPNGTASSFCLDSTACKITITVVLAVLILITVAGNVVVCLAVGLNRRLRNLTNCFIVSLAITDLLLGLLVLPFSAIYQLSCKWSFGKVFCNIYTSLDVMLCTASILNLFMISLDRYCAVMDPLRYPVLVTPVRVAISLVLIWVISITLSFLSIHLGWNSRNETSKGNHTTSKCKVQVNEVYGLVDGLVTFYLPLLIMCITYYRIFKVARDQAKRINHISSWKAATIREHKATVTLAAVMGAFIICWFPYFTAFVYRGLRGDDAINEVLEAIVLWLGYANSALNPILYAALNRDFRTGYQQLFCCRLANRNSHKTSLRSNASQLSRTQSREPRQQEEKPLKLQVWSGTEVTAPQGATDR
D(1A) dopamine receptor (Homo sapiens), sequence (P21728 whole entry): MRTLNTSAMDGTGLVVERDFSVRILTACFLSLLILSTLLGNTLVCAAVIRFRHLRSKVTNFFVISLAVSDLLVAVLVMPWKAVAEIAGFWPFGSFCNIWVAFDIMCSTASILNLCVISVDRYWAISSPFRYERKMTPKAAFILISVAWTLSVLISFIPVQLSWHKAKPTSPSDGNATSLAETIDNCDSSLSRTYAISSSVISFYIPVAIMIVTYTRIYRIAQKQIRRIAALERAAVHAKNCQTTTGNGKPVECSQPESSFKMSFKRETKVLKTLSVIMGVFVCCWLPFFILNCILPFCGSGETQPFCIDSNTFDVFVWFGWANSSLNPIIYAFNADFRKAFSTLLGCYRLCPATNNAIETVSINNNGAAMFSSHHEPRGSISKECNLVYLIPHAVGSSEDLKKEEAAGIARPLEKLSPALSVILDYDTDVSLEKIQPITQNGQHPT
Sodium-dependent dopamine transporter, sequence (Q01959 whole entry): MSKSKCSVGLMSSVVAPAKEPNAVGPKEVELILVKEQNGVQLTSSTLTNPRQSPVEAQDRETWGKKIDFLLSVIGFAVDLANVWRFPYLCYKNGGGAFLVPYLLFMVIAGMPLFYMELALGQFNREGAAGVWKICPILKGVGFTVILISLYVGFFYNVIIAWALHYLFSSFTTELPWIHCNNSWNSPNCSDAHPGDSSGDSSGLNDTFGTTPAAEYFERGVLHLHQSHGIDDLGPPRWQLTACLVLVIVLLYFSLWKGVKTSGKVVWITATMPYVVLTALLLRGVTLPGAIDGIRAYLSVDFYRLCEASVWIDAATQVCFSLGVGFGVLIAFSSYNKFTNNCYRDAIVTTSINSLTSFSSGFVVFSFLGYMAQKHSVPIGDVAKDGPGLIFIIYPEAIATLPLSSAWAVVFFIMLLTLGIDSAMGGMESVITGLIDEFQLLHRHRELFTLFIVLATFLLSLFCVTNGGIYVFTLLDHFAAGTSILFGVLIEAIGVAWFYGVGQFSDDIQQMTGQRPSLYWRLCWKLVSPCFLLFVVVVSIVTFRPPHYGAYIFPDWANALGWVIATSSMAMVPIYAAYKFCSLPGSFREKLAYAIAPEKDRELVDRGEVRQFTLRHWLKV
Insulin receptor (Homo sapiens), sequence (P06213 28-758 limits assumed): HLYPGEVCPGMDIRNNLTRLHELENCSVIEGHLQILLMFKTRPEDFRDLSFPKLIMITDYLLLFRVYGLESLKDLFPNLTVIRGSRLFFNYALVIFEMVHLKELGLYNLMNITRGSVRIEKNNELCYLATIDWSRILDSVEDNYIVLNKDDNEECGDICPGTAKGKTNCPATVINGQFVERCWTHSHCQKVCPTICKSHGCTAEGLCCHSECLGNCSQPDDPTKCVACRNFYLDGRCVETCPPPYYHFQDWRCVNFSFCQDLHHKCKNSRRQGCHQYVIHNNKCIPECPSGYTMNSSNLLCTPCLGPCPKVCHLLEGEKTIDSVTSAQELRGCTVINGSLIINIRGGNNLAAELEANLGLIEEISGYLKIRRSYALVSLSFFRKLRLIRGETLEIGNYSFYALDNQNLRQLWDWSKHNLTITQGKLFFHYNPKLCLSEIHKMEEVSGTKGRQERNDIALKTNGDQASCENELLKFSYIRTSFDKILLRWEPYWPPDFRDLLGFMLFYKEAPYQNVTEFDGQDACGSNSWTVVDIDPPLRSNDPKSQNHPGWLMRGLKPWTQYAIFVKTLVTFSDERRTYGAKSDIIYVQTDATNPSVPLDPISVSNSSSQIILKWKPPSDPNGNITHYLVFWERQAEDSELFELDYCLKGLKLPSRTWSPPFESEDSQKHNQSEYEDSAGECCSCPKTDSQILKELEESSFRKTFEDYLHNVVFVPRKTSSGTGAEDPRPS
Insulin receptor (Homo sapiens), sequence (P06213 763-1382 limits assumed): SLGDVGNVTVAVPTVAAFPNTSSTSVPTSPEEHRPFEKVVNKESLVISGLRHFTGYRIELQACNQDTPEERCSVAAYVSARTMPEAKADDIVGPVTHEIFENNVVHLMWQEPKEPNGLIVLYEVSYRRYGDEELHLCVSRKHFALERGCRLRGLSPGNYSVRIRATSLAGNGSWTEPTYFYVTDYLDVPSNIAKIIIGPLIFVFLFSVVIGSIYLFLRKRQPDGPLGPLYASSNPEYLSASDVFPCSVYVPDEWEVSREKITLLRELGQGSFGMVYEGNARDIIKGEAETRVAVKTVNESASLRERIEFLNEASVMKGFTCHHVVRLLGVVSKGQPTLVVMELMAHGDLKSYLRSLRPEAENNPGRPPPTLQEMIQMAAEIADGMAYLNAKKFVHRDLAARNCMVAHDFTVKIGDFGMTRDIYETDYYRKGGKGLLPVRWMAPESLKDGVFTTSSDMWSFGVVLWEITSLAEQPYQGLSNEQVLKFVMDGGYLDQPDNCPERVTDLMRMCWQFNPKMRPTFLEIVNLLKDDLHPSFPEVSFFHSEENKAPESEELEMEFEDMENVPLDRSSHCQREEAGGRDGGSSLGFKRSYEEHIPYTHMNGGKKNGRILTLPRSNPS
Sigma non-opioid intracellular receptor 1 (Homo sapiens), sequence (Q99720 whole entry): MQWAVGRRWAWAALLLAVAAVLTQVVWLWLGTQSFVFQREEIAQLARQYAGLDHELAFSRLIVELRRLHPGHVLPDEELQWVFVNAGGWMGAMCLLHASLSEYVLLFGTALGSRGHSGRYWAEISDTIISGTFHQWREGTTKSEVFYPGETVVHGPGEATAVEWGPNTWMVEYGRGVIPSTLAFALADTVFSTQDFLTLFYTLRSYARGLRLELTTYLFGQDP
Alpha-2A adrenergic receptor (Homo sapiens), sequence (P08913 whole entry): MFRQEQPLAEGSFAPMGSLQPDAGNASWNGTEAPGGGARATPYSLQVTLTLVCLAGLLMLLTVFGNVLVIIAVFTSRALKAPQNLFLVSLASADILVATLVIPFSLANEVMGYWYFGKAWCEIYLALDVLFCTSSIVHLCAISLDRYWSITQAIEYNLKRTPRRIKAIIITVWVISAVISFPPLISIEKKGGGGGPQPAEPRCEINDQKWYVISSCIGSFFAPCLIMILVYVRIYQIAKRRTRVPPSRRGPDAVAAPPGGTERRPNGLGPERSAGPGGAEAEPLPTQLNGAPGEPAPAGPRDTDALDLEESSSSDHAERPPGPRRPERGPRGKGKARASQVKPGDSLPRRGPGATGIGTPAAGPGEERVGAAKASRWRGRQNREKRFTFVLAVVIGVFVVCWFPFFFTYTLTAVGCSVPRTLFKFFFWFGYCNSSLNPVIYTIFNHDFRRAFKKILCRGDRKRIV
Alpha-2C adrenergic receptor (Homo sapiens), sequence (P18825 whole entry): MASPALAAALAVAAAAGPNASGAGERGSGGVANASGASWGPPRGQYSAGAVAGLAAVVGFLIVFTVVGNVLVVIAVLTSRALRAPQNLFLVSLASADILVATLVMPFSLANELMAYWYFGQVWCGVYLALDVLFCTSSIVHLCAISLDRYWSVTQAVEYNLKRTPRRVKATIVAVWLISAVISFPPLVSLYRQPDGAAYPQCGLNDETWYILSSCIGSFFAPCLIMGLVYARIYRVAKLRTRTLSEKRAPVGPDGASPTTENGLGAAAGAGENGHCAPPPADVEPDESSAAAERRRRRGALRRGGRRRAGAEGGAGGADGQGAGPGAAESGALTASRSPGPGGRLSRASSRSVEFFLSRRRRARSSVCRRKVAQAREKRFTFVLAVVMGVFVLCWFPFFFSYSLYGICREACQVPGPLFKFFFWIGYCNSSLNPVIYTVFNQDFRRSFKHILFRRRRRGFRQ

Row | SMILES | inhibition [1] [%] | inhibition [2] [%] | inhibition (Homo sapiens) [%] | inhibition [3] [%] | inhibition [4] [%] | inhibition [5] [%] | inhibition [6] [%] | inhibition [7] [%] | inhibition (Rattus norvegicus) [%] | inhibition [8] [%] | inhibition [9] [%] | inhibition [10] [%] | inhibition [11] [%] | inhibition [12] [%] | inhibition [13] [%] | inhibition [14] [%] | inhibition [15] [%] | inhibition [16] [%] | inhibition [17] [%] | inhibition [18] [%] | also measured
1 | Cc1cc(OC2CCS(=O)(=O)CC2)cc(C)c1-c1cccc(COc2ccc(CCC(=O)O)c(F)c2)c1 | 21 | 14 | 3 | 3 | -10 | 3 | 15.8 | 85.4 | 16 | 3.83 | -9 | 7 | -7 | 21.5 | 5 | 13.7 | 53.7 | 26 | 35.8 | 7 | inhibition [19]: 13%; inhibition [20]: 5%; inhibition [21]: 14%; inhibition [22]: 1%; inhibition [23]: 24%; inhibition [24]: 7%; inhibition [25]: 8.9%; inhibition [26]: 5.95%; inhibition [27]: 5.47%; inhibition [28]: 19%
2 | Cc1cc(OC2CCS(=O)(=O)CC2)cc(C)c1-c1cccc(COc2ccc(C(=O)O)c(F)c2)c1 | 14 | 1 | 4 | 8 | 8 | 7 | -1.5 | 7.27 | -9 | -1.42 | -7 | 0 | 2 | 3 | 10 | 20.9 | 42.2 | 2 | 29.5 | -4 | inhibition [19]: 13.1%; inhibition [20]: -4%; inhibition [21]: 19%; inhibition [22]: 10%; inhibition [23]: -3%; inhibition [24]: 20%; inhibition [25]: 16.7%; inhibition [26]: 7.66%; inhibition [27]: -4.04%; inhibition [28]: -3%
